Data taken from ChEMBL document CHEMBL1201862, “PubChem BioAssay data set” (2004).
Structures can show the parent of a compound that is named as a salt. Calls of active or inactive are those of the source.

How the values were obtained:
14-3-3 protein gamma = 14-3-3 protein gamma (Homo sapiens, UniProt P61981); experiment: modulators of 14-3-3 gamma client binding – dose response (AID 711); assay type: functional
[1] = viability inhibitors of stage V gametocytes – luminescence, dose response (AID 1117278); assay type: functional, cell-based;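 further: gametocytes exposed to compound for 24 hours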
[2] = viability loss in human Jurkat cells – cell-based, luminescence, cytotoxicity control for P. falciparum gametocyte viability project, dose response (AID 1117277); assay type: functional;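 further: potency reflects loss of cellular ATP meaning fewer viable cells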
[3] = molecular target: Photoreceptor-specific nuclear receptor (Homo sapiens, UniProt Q9Y5X4); experiment: ligands suppressing NR2E3 nuclear receptor activity – biochemical, TR-FRET, dose response (AID 463256); assay type: functional
[4] = molecular target: Peroxisome proliferator-activated receptor gamma/Nuclear receptor corepressor 2 (Homo sapiens, UniProt P37231+Q9Y618); experiment: Counterscreen for NR2E3 inverse agonists: TR-FRET-based biochemical high throughput dose response assay to identify inverse agonists of the interaction between peroxisome proliferator-activated receptor gamma (PPARg) and nuclear receptor co-repressor 2 (NCOR2).; assay type: functional
cells = assay type: functional, cell-based; conditions: INS-1E
[5] = IC50 of insulin release inhibition, rat insulinoma INS-1E line, 5 mM glucose, cell-based (AID 1117331); assay type: functional
[6] = molecular target: Ubiquitin carboxyl-terminal hydrolase BAP1 (Homo sapiens, UniProt Q92560); experiment: inhibition of BAP1 ubiquitin hydrolase activity – biochemical, dose response (AID 714); assay type: functional
[7] = rise of 4N DNA cells, HeLa – IC50, dose response (AID 1117351); assay type: functional, cell-based
[8] = rise of 2N DNA cells, HeLa – IC50, dose response (AID 1117349); assay type: functional, cell-based
[9] = lung carcinoma cell viability loss – CellTiter-Glo luminescence, dry powder, set 17, dose response (AID 1117284); assay type: functional, cell-based; conditions: A549
[10] = molecular target: Ras and Rab interactor 1/Tyrosine-protein kinase ABL1 (Homo sapiens, UniProt P00519+Q13671); assay type: functional;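 further: biochemical TR-FRET dose-response test measuring inhibition of binding between Rin1 and Abl proteins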
Chain of Ras and Rab interactor 1/Tyrosine-protein kinase ABL1 (P00519 whole entry): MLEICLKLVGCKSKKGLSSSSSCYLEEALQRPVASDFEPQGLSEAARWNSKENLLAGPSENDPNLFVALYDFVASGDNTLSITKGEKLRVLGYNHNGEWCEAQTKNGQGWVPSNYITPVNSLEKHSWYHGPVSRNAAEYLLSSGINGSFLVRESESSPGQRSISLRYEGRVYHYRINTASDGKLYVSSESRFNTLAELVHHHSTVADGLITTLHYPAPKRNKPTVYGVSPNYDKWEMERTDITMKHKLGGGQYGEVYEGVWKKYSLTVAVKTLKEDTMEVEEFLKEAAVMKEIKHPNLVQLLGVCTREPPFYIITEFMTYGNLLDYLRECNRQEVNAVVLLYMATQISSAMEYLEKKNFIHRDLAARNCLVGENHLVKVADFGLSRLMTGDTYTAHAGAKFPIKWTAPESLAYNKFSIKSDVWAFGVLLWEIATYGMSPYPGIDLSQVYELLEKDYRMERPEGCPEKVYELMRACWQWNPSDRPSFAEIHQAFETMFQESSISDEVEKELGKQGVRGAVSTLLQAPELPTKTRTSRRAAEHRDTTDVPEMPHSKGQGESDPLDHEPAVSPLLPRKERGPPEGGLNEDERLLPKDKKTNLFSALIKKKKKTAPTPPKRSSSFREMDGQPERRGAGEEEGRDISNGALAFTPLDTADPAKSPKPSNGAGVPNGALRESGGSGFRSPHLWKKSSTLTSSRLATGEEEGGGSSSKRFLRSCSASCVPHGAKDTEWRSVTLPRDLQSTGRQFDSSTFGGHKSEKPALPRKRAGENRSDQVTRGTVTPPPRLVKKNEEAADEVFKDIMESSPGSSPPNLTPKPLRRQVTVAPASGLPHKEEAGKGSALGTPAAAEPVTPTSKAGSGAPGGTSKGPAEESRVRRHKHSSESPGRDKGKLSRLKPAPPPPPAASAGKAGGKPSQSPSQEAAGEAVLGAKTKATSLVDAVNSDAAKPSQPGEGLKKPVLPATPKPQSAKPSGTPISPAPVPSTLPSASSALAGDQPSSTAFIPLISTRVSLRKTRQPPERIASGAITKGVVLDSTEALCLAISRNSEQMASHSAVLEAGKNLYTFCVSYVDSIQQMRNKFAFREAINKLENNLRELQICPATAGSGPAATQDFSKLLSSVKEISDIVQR
Chain of Ras and Rab interactor 1/Tyrosine-protein kinase ABL1 (Q13671 whole entry): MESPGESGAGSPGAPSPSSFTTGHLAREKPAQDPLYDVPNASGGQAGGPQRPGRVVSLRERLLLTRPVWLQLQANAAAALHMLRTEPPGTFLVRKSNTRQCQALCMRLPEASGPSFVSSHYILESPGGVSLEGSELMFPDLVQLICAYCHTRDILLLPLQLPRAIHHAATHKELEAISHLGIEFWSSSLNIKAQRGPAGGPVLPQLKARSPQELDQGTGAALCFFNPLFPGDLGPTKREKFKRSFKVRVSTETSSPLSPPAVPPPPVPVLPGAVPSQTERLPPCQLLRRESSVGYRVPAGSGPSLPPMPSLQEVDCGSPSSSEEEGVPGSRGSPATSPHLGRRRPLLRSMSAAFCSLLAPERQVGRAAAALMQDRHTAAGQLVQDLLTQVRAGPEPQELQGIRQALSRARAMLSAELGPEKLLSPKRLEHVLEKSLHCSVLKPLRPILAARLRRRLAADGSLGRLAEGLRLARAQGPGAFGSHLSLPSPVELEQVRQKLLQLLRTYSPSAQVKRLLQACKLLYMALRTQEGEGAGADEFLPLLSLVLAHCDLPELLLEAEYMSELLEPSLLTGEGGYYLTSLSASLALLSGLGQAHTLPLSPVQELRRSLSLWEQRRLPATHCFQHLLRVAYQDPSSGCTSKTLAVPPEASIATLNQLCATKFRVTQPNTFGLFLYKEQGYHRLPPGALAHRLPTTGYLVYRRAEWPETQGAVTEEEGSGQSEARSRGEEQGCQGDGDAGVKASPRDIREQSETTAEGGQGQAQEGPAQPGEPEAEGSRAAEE

Chain of Photoreceptor-specific nuclear receptor (Q9Y5X4 whole entry): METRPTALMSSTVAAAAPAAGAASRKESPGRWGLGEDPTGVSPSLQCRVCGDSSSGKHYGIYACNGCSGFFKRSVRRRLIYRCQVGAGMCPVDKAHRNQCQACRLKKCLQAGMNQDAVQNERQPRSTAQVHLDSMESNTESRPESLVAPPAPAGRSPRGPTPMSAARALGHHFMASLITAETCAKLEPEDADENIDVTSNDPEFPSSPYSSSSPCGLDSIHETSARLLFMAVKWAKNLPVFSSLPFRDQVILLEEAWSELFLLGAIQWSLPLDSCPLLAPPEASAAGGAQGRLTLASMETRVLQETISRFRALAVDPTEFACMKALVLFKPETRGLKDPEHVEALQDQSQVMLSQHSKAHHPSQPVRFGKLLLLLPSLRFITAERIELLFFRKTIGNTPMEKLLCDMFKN
Chain of Ubiquitin carboxyl-terminal hydrolase BAP1 (Q92560 whole entry): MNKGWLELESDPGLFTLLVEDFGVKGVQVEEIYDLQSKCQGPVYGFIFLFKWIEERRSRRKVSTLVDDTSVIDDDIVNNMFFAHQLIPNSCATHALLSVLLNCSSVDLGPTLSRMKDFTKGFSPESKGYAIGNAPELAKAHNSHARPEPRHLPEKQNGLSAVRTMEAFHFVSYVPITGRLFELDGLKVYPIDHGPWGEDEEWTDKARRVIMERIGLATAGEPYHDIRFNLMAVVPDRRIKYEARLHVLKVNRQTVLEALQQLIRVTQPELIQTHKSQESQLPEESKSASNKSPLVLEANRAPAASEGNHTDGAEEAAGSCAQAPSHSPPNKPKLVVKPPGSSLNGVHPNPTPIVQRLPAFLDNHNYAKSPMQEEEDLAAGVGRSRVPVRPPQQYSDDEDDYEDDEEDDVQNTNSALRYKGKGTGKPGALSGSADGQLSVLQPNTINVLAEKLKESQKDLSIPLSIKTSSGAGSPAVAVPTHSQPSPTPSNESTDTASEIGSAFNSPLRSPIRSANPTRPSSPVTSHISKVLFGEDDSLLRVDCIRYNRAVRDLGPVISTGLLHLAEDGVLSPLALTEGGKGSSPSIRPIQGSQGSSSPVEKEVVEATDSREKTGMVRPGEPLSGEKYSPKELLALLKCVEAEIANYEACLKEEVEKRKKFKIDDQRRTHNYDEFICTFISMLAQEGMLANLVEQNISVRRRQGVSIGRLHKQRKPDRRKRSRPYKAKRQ
Chain of 14-3-3 protein gamma (P61981 whole entry): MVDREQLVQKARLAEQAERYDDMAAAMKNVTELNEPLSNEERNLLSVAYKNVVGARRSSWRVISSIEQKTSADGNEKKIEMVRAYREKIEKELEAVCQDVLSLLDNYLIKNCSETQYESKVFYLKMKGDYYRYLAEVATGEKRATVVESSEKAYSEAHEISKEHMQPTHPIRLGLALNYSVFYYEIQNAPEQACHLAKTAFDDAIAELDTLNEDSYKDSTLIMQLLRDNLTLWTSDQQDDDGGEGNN

In the case of `OC(CN1CCOCC1)CN(c1ccccc1)c1ccccc1` (configuration not stated), the IC50 (14-3-3 protein gamma) is reported as > 50 µM (not active).
For `COc1ccc(CC(=O)Nc2cccc(-c3ccc4nnc(C)n4n3)c2)cc1OC`, the IC50 [1] was > 109 µM (inactive) and the IC50 [2] was 35.6 µM (inactive).
In the case of `CC(=O)Nc1ccc(NC(=O)CNC(=O)c2sc3ccccc3c2Cl)cc1`, the IC50 [3] is reported as 15.5 µM (not active) and the IC50 [4] is reported as 11.1 µM (not active).
For `NCc1ccc(S(N)(=O)=O)cc1` [MAFENIDE HYDROCHLORIDE], the IC50 (cells) was > 33.3 µM (inactive) and the IC50 [5] was > 33.3 µM (inactive).
With `N#Cc1c(NC(=O)CSc2ncnc3c2cnn3-c2ccccc2Cl)sc2c1CCCC2` the IC50 [6] was > 50 µM (not active).
For `CC(=O)Oc1ccccc1C(=O)Nc1ncc([N+](=O)[O-])s1` [NITAZOXANIDE], the IC50 [7] was > 10 µM (inactive) and the IC50 [8] was > 10 µM (inactive).
For `C[C@@H]1CN([C@H](C)CO)S(=O)(=O)c2ccc(C#C[C@@H](C)O)cc2O[C@@H]1CN(C)Cc1ccc(-c2ccccc2)cc1`, the AC50 [9] was 36.1 µM (active) and the IC50 [10] was 9.68 µM (active).
